Among the data in patent publication US7534897B2 (Shionogi & Co., Ltd., priority 2002, dated 2009) are IC50 and melting point values, retold here.

In one series the target is T1, CRTH2 (Homo sapiens, UniProt Q9Y5Y4).
T1 construct: expressed in transfected cells; host or cells: K562 cells (membrane fraction)
T1 sequence (Q9Y5Y4 1-395): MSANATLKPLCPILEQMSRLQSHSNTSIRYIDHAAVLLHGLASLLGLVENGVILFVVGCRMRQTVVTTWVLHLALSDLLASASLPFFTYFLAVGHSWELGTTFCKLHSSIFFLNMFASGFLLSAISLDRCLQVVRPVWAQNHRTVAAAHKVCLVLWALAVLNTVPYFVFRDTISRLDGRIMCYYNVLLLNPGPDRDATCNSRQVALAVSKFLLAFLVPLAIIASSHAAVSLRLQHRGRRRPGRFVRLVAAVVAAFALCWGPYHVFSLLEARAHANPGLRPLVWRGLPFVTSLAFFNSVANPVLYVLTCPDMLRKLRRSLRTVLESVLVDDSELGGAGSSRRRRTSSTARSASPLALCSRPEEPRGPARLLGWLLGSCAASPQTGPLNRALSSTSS
The series can be described thus: Binding activity to CRTH2 ([3H]PGD2 binding assay). To be noted: membrane fraction of CRTH2-transfected K562 cells, read-out: CRTH2 inhibitory activity IC50. How it is done:
Experiment 1 Binding Activity to CRTH2
The membrane fraction prepared with CRTH2-transfected K562 cells was used for a binding assay. To a binding-reaction solution (50 mM Tris/HCl, pH 7.4, 10 mM MgCl2) the membrane fraction (0.06 mg) and 3 nM [^3H]PGD2 (172 Ci/mmol) were added, and the mixture was reacted at room temperature for 60 min. After the reaction, the mixture was filtered through a glass fiber filter paper and washed several times with cooled physiological saline, then the radioactivity retained on the filter paper was measured. The specific-binding ratio was calculated by subtracting the non-specific binding ratio which is the radioactivity similarly measured in the presence of 10 μM PGD2 from the total binding.

Broadly, the IC50 is the concentration at which inhibition is half-maximal. Turning to `Cc1ccccc1CN(CCc1cn(CC(=O)O)c2ccccc12)S(=O)(=O)c1ccc(F)cc1` [Ia-61], at CRTH2, the IC50 was found to be 45 nM. On the same count and under the same terms, for `O=C(O)Cn1c2c(c3ccccc31)CC(NS(=O)(=O)c1ccc(F)cc1)CC2` (single isomer, unassigned; (+)) [(+)-Ib-16] the value was 5.9 nM. Regarding `O=C(O)Cn1cc(CCN(Cc2cccs2)S(=O)(=O)c2ccc(F)cc2)c2ccccc21` [Ia-65], at CRTH2, the IC50 came out at 27 nM.

For the molecule `O=C(O)Cn1c2c(c3ccccc31)CC(NS(=O)(=O)c1cccs1)CC2` (single isomer, unassigned; (+)) [(+)-Ib-20], the IC50 on CRTH2 worked out at 7.9 nM. As usually defined, the melting point is the temperature of the solid-liquid transition. Consider `CN(C1CCc2c(c3ccccc3n2CC(=O)O)C1)S(=O)(=O)c1ccsc1` (stereo not shown) [Ib-30], for which the melting point was in the range of 175 to 180 °C. Also, the IC50 on CRTH2 came to 5.3 nM. On to `Cc1ccc(S(=O)(=O)N(C)C2CCc3c(c4ccccc4n3CC(=O)O)C2)cc1` (single isomer, unassigned; (+)) [(+)-Ib-27], for which, at CRTH2, the half-inhibitory concentration (IC50) turned out to be 6.2 nM.

With `CC1CCc2c(c3cc(N(C)S(=O)(=O)c4ccc(F)cc4)ccc3n2CC(=O)O)C1` (stereo not shown) [Ih-5], the melting point lay in the range of 100 to 101 °C. The IC50 at CRTH2 is 23 nM. Take `Cc1c(CCN(C)S(=O)(=O)c2ccc(F)cc2)c2ccccc2n1CC(=O)O` [Ia-41]: the IC50 on CRTH2 came out at 34 nM.

On to `CN(C1CCc2c(c3ccccc3n2CC(=O)O)C1)S(=O)(=O)c1cccs1` (single isomer, unassigned; (+)) [(+)-Ib-29], for which, at CRTH2, the IC50 turned out to be 4.9 nM.

On to `CN(CCc1cn(CC(=O)O)c2ccc(F)cc12)S(=O)(=O)c1ccc(F)cc1` [Ia-45], for which the IC50 on CRTH2 was found to be 19 nM. On the same count and under the same terms, in the case of `Cc1c(C(C)(C)CNS(=O)(=O)c2ccc(F)cc2)c2ccccc2n1CC(=O)O` [If-1] it was 19 nM.

For the molecule `CCc1c(C)n(CC(=O)O)c2ccc(N(C)S(=O)(=O)c3ccc(F)cc3)cc12` [Ik-5], the melting point was in the range of 161 to 167 °C. For the same molecule, the IC50 on CRTH2 turned out to be 19 nM.

Take `Cc1c(CCN(Cc2ccccc2)S(=O)(=O)c2ccc(F)cc2)c2ccccc2n1CC(=O)O` [Ia-55]: the IC50 at CRTH2 amounted to 42 nM.

Turning to `O=C(O)Cn1cc(C2CCC(NS(=O)(=O)c3ccc(F)cc3)C2)c2ccccc21` (stereo not shown) [Ij-1], the IC50 at CRTH2 came out at 26 nM. Still for that read-out and setting: in the case of `O=C(O)Cn1cc(CCNS(=O)(=O)c2ccc(F)cc2)c2cc(Cl)ccc21` [Ia-32] it was 18 nM. Turning to `CN(CCc1cn(CC(=O)O)c2ccccc12)S(=O)(=O)c1ccc(F)cc1` [Ia-39], the IC50 at CRTH2 is 45 nM. Same read-out and setting: for `O=C(O)Cn1c2c(c3ccccc31)CC(NS(=O)(=O)c1ccsc1)CC2` (stereo not shown) [Ib-21] the value was 12 nM; for `O=C(O)Cn1cc(CCN(CCc2ccccc2)S(=O)(=O)c2ccc(F)cc2)c2ccccc21` [Ia-66], 37 nM; for `Cc1c(CCNS(=O)(=O)c2ccc(F)cc2)c2ccccc2n1CC(=O)O` [Ia-20], 22 nM. Still for that read-out and setting: for `CC(C)N(CCc1cn(CC(=O)O)c2ccccc12)S(=O)(=O)c1ccc(F)cc1` [Ia-48] the value was 57 nM; for `O=C(O)Cn1cc(CCN(Cc2ccccc2)S(=O)(=O)c2ccc(F)cc2)c2cc(F)ccc21` [Ia-59], 23 nM. Regarding `COc1ccc(S(=O)(=O)N(C)c2ccc3c(c2)c2c(n3CC(=O)O)CCCCC2)cc1` [Ig-14], the melting point lay within 144 to 150 °C. The IC50 on CRTH2 amounted to 8.3 nM. With `Cc1c(C)n(CC(=O)O)c2ccc(N(C)S(=O)(=O)c3ccc(F)cc3)cc12` [Ik-1], the melting point was 165 to 179 °C. For the same molecule, the IC50 on CRTH2 is 48 nM.

The molecule `CC1CCc2c(c3cc(N(Cc4ccccc4)S(=O)(=O)c4ccc(F)cc4)ccc3n2CC(=O)O)C1` (stereo not shown) [Ih-6] had a melting point of 176 to 178 °C. The IC50 on CRTH2 was found to be 34 nM.

Turning to `CCN(c1ccc2c(c1)c1c(n2CC(=O)O)CCCCC1)S(=O)(=O)c1ccc(F)cc1` [Ig-15], the IC50 on CRTH2 was 7.5 nM. Same read-out and setting: for `CN(C1CCC(c2cn(CC(=O)O)c3ccccc23)C1)S(=O)(=O)c1ccc(F)cc1` (stereo not shown) [Ij-2] the value was 53 nM. As for `COc1ccc(CN(CCc2cn(CC(=O)O)c3ccccc23)S(=O)(=O)c2ccc(F)cc2)cc1` [Ia-62], the melting point fell in the range of 108 to 110 °C. Also, the IC50 at CRTH2 worked out at 49 nM.

Molecule `O=C(O)Cn1c2c(c3cc(N(Cc4ccccc4)S(=O)(=O)c4ccc(F)cc4)ccc31)CCCC2` [Ih-3] returned a melting point of 198 to 202 °C. Also, the IC50 on CRTH2 came out at 33 nM.

As to `CCc1c(C)n(CC(=O)O)c2ccc(NS(=O)(=O)c3ccc(F)cc3)cc12` [Ik-3], the melting point is 172 to 178 °C. Besides, on CRTH2, the IC50 was found to be 51 nM.

For the molecule `C=CCN(CCc1cn(CC(=O)O)c2ccccc12)S(=O)(=O)c1ccc(F)cc1` [Ia-47], the IC50 at CRTH2 came out at 51 nM. As to `O=C(O)Cn1c2c(c3cc(NS(=O)(=O)c4ccc(F)cc4)ccc31)CCCCC2` [Ig-11], the melting point is 209 to 211 °C. Also, the IC50 at CRTH2 came out at 10 nM. Take `O=C(O)Cn1cc(CCN(Cc2ccccc2)S(=O)(=O)c2ccc(F)cc2)c2cc(Cl)ccc21` [Ia-58]: the IC50 on CRTH2 is 33 nM.

`CN(c1ccc2c(c1)c1c(n2CC(=O)O)CCCC1=O)S(=O)(=O)c1ccc(F)cc1` [Ig-4] had a melting point of 218 to 220 °C. For the same molecule, the IC50 at CRTH2 worked out at 7.8 nM. `O=C(O)Cn1cc(CCN(Cc2ccc([N+](=O)[O-])cc2)S(=O)(=O)c2ccc(F)cc2)c2ccccc21` [Ia-63]: the IC50 at CRTH2 is 54 nM. In turn, `CN(c1ccc2c(c1)c1c(n2CC(=O)O)CCCCC1)S(=O)(=O)c1ccc(O)cc1` [Ig-16] had a melting point of 186 to 189 °C. Moreover, the IC50 on CRTH2 is 3.6 nM. For the molecule `Cc1c(C(C)C)c2cc(NS(=O)(=O)c3ccc(F)cc3)ccc2n1CC(=O)O` [Ik-4], the melting point fell in the range of 165 to 171 °C. Moreover, on CRTH2, the IC50 was 47 nM. Consider `CN(c1ccc2c(c1)c1c(n2CC(=O)O)CCSC1)S(=O)(=O)c1ccc(F)cc1` [Ig-3], for which the melting point was in the range of 214 to 217 °C. At CRTH2, the IC50 is 9.7 nM. The like results for `O=C(O)Cn1cc(C2=CCCN(S(=O)(=O)c3ccc(F)cc3)C2)c2ccccc21` [Ic-2] were, in that order, 142 to 143 °C and 21 nM. Turning to `Cc1ccc(S(=O)(=O)NC2CCc3c(c4ccccc4n3CC(=O)O)C2)cc1` (single isomer, unassigned; (+)) [(+)-Ib-18], the IC50 at CRTH2 was 13 nM. For the molecule `Cc1cc2cc(N(C)S(=O)(=O)c3ccc(F)cc3)ccc2n1CC(=O)O` [Ik-2], the melting point was 206 to 208 °C (dec.). Besides, the IC50 at CRTH2 turned out to be 86 nM. As to `O=C(O)Cn1cc(CCCN(Cc2ccccc2)S(=O)(=O)c2ccc(F)cc2)c2ccccc21` [Ia-85], the IC50 at CRTH2 was determined as 80 nM. On the same count and under the same terms, for `CS(=O)(=O)NC(=O)Cn1cc(CCN(Cc2ccccc2)S(=O)(=O)c2ccc(F)cc2)c2ccccc21` [Ia-52] the value was 24 nM; for `CN(C1Cc2c(n(CC(=O)O)c3ccccc23)C1)S(=O)(=O)c1ccc(F)cc1` (stereo not shown) [Ib-6], 55 nM; for `Cc1c(C(C)CNS(=O)(=O)c2ccc(F)cc2)c2ccccc2n1CC(=O)O` (stereo not shown) [If-4], 16 nM.

Regarding `O=C(O)Cn1cc(CCNS(=O)(=O)c2ccc(-c3ccc(F)cc3)cc2)c2ccccc21` [Ia-15], the IC50 on CRTH2 worked out at 37 nM. On to `CN(CCc1cn(CC(=O)O)c2ccc(Cl)cc12)S(=O)(=O)c1ccc(F)cc1` [Ia-44], for which the IC50 at CRTH2 was 23 nM. Regarding `COc1ccc2c(c1)c(CCN(Cc1ccccc1)S(=O)(=O)c1ccc(F)cc1)cn2CC(=O)O` [Ia-57], at CRTH2, the IC50 came out at 57 nM. The same measure, in the same setting: in the case of `O=C(O)Cn1cc(C2CCC(N(Cc3ccccc3)S(=O)(=O)c3ccc(F)cc3)C2)c2ccccc21` (stereo not shown) [Ij-3] it was 53 nM.
